Measured values taken from patent US8110657B2, “Polypeptides and polynucleotides for enhancing immune reactivity to HER-2 protein” (priority 1999, dated 2012).

Tested on: autologous targets
Assay: CTL assay (chromium release)
Type: cell-based
Conditions: two in vitro re-stimulations, IL-2 added

Substance: DW2: amino acids 391-399 of the HER-2 protein, T cell epitope (PLQPEQLQV; UniProt P04626 391-399, looked up, fragment)
- CTL lysis of targets: able to specifically lyse autologous targets in a dose dependent manner
